Results on 2 compounds are retold here after article PMC5341858, “Molecular regulation of apoptotic machinery and lipid metabolism by mTORC1/mTORC2 dual inhibitors in preclinical models of HER2+/PIK3CAmut breast cancer” (Oncotarget, 2016).

Holding throughout (assay type): cell-based
For one assay, the system named is MDA-MB-231 cells. The assay is described as follows: Glucose-to-lipid conversion (de novo lipid synthesis). As to conditions: similar treatment, 4 h saturating dose. The protocol: (§1) Cellular glucose-to-lipid conversion was measured as described. Briefly, cells were pretreated with inhibitors for 2 h, incubated for 2 h in medium containing 2 μCi/mL D-[1-14C] glucose (PerkinElmer, NEC043X001MC). Total lipids were extracted twice with 300 μL hexane:isopropanol (3:2; vol:vol). Cell debris was carefully removed by centrifugation at 14,000 rpm for 5 min using a microcentrifuge. Radioactive lipids were dried, redissolved with 100 μL of chloroform and determined by liquid scintillation counting. A duplicate assay plate without radioactive glucose label was used to count the number of cells per treatment. Glucose to total lipid conversion rate is the radioactive counts from the extracted lipid normalized by the number of cells per hour of ^14C-glucose incubation. For acetyl-CoA assay, cells grown in 96-well plates were washed and lysed in 40 μL/well using lysis buffer. Cell lysates were transferred to V-bottom plates, cleared by centrifugation. 30 μL of the cleared cell lysates were subjected to acetyl-CoA measurement using an acetyl-CoA assay kit (Sigma, MAK-039) following manufacturer's assay manual. Duplicate assay plates were used to count the number of cells per treatment for normalization in determining cellular acetyl-CoA levels.

For assay [1], the system named is MDA-MB-453 cells. The assay is described as above. Particulars: 4 h, saturating dose (5 μM MTI-31, 1 μM rapamycin). The method, then: as §1
Assay [2] relates to MDA-MB-453 cells. The assay is described as follows: Total cellular acetyl-CoA level. Particulars: 24 h. The method, then:
as §1

`COc1ccc(-c2ccc3c(N4CCOC[C@@H]4C)nc(N4CCOC[C@@H]4C)nc3n2)cc1CO` [AZD8055]: the “effect on de novo lipid synthesis” value with MDA-MB-231 cells was “did not significantly reduce lipid synthesis”. Further, in the assay with MDA-MB-453 cells [1], the “suppression of de novo lipid synthesis (14C-glucose-to-lipid conversion rate)” value is given as 63%.

As for `CO[C@H]1C[C@@H]2CC[C@@H](C)[C@@](O)(O2)C(=O)C(=O)N2CCCC[C@H]2C(=O)O[C@H]([C@H](C)C[C@@H]2CC[C@@H](O)[C@H](OC)C2)CC(=O)[C@H](C)/C=C(\C)[C@@H](O)[C@@H](OC)C(=O)[C@H](C)C[C@H](C)/C=C/C=C/C=C/1C` [rapamycin], the “effect on de novo lipid synthesis” value with MDA-MB-231 cells is recorded as “did not significantly reduce lipid synthesis”. For the same compound, the “suppression of de novo lipid synthesis (14C-glucose-to-lipid conversion rate)” value in the assay on MDA-MB-453 cells [1] is given as 32%. The “reduction in acetyl-CoA” value in the assay on MDA-MB-453 cells [2] is 45%.
